Results: patent US12240855B2, “Pyrrolopyrazole derivative” (DAIICHI SANKYO COMPANY, LIMITED, priority 2019, dated 2025)

Columns and labels:
[1] = test system: PTDSS2-KO HCT116 cell-subcutaneous transplanted model; assay: Test Example 4: Antitumor activity on PTDSS2-KO HCT116 cell-subcutaneous transplanted model; type: in vivo, female BALB/c-nu/nu mice; details: oral
Excerpt: HCT116 cell-subcutaneous transplanted model PTDSS2-KO HCT116 cells were transplanted to a right subcutaneous axillary portion of female BALB/c-nu/nu mice at a proportion of 1×10^7 cells/head, and when the tumor volume reached 100 to 300 mm^3 (estimated tumor volume (major axis×minor axis×minor axis/2)), mice were divided into groups of 6 or 5 mice each such that there was no difference between groups. The female BALB/c-nu/nu mice were purchased from CHARLES RIVER LABORATORIES JAPAN, INC. The compounds of Examples 58, 57, 53, 30, 42, 32, 34, 33, and 31 were orally administered from the day of grouping in the dosing schedule shown in Table 12 (twice daily, 11 successive days (BID×11), or once daily, 13 successive days (QD×13)). The tumor volume was measured until the next day of completion of the administration (test end date). 0.5% methylcellulose (MC) was administered to the vehicle control group as the vehicle.
TGI %=(1−TVt/TVc)×100 • TGI: Tumor growth suppression rate • TVt: Group mean tumor volume of compound administration group on test end date • TVc: Group mean tumor volume of vehicle control group on test end date

[2] = test system: PTDSS2 gene-disrupted (PTDSS2-KO) HCT116 cells; assay: cells; details: Homo sapiens, HCT-116, 72 h, read-out: Test Example 3 PTDSS2-KO HCT116 GI50
Protocol: (§1) McCoy's 5A medium containing 10% bovine serum was used as the culture medium for each cell. […] They were added to each well of 384-well plates at 40 nL/well using an Echo555 (Labcyte Inc.). […] On the day of compound addition (day 0) and 3 days after compound addition (day 3), 10 μL/well of CellTiter-Glo® 2.0 Assay (Promega, #G9242), which is a reagent for ATP measurement, was added to each well, and the amount of luminescence in each well was measured with EnVision. From the amount of luminescence on the day of compound addition (C0) and the amount of luminescence of the compound non-addition group (C3) and compound addition group (T3) after 3 days of culture, cell viability was calculated based on the following formula. Cell viability (%)=[(T3−C0)/(C3−C0)]×100

[3] = test system: HCT116 cells; assay: cells; details: Homo sapiens, HCT-116, 72 h, read-out: Test Example 3 HCT116 GI50
Protocol: as §1

[4] = target: PSS1 (Homo sapiens, UniProt P48651); assay: biochemical
[5] = 40 mg/kg, QD × 13, test end date
[6] = 10 mg/kg, QD × 13, test end date
[7] = 20 mg/kg, QD × 13, test end date
[8] = 50 mg/kg, BID × 11, test end date
[9] = 100 mg/kg, BID × 11, test end date

`CC(F)(F)CN1C(=O)c2[nH]nc(-c3cccc4[nH]c(=O)oc34)c2C1c1ccc(Oc2ccc(OC(F)(F)F)c(Cl)c2)cc1` (single isomer, unassigned; (-)) [Example 31, (−)-7-[4-{4-[3-chloro-4-(trifluoromethoxy)phenoxy]phenyl}-5-(2,2-difluoropropyl)-6-oxo-1,4,5,6,-tetrahydropyrrolo[3,4-c]pyrazol-3-yl]-1,3-benzoxazol-2-(3H)-one] was tested, and the “TGI (%)” value [1, 5] was 88%.
`O=C1c2[nH]nc(-c3cccc4[nH]c(=O)oc34)c2C(c2cc(Oc3ccccc3)ccc2F)N1Cc1ccccn1` (stereo not drawn) [Example 13, 7-{4-(2-Fluoro-5-phenoxyphenyl)-6-oxo-5-[(pyridin-2-yl)methyl]-1,4,5,6-tetrahydropyrrolo[3,4-c]pyrazol-3-yl}-1,3-benzoxazol-2(3H)-one] gave a GI50 [2] of 0.82 µM and a GI50 [3] of over 25 µM.
`O=C1c2[nH]nc(-c3cccc4[nH]c(=O)oc34)c2C(c2cc(OC3CCOCC3)ccc2F)N1CC(F)(F)F` (stereo not drawn) [Example 9, 7-[4-{2-Fluoro-5-[(oxan-4-yl)oxy]phenyl}-6-oxo-5-(2,2,2-trifluoroethyl)-1,4,5,6-tetrahydropyrrolo[3,4-c]pyrazol-3-yl]-1,3-benzoxazol-2(3H)-one] gave a GI50 [2] of 0.7 µM and a GI50 [3] of over 25 µM.
In the case of `CC(F)(F)CN1C(=O)c2[nH]nc(-c3cccc4[nH]c(=O)oc34)c2C1c1ccc(Oc2cc(C(F)(F)F)cc(C(F)(F)F)c2)cc1` (single isomer, unassigned; (+)) [(+)-7-[4-{4-[3,5-bis(trifluoromethyl)phenoxy]phenyl}-5-(2,2-difluoropropyl)-6-oxo-1,4,5,6-tetrahydropyrrolo[3,4-c]pyrazol-3-yl]-1,3-benzoxazol-2(3H)-one], the IC50 [4] is reported as over 5 µM.
For `Cc1cc(Oc2ccc(C3c4c(-c5cccc6[nH]c(=O)oc56)n[nH]c4C(=O)N3CC(C)(F)F)cc2)ccc1OC(F)(F)F` (single isomer, unassigned; (-)) [Example 32, (−)-7-[5-(2,2-difluoropropyl)-4-{4-[3-methyl-4-(trifluoromethoxy)phenoxy]phenyl}-6-oxo-1,4,5,6-tetrahydropyrrolo[3,4-c]pyrazol-3-yl]-1,3-benzoxazol-2(3H)-one], the “TGI (%)” value [1, 6] was 95%, the “TGI (%)” value [1, 7] was 98% and the “TGI (%)” value [1, 5] was 98%.
With `CC(F)(F)CN1C(=O)c2[nH]nc(-c3cccc4[nH]c(=O)oc34)c2C1c1ccc(Oc2ccc(OC(F)(F)F)c(C(F)(F)F)c2)cc1` (single isomer, unassigned; (-)) [Example 33, (−)-7-[5-(2,2-difluoropropyl)-6-oxo-4-{4-[4-(trifluoromethoxy)-3-(trifluoromethyl)phenoxy]phenyl}-1,4,5,6-tetrahydropyrrolo[3,4-c]pyrazol-3-yl]-1,3-benzoxazol-2(3H)-one] the GI50 [2] was 0.014 µM, the “TGI (%)” value [1, 6] was 97% and the “TGI (%)” value [1, 7] was 98%. The “TGI (%)” value [1, 5] was 98%.
Work on `CC(F)(F)CN1C(=O)c2[nH]nc(-c3cccc4[nH]c(=O)sc34)c2C1c1ccc(Oc2ccc(OC(F)(F)F)cc2)cc1` (stereo not drawn) [Example 95, 7-[5-(2,2-Difluoropropyl)-6-oxo-4-{4-[4-(trifluoromethoxy)phenoxy]phenyl}-1,4,5,6-tetrahydropyrrolo[3,4-c]pyrazol-3-yl]-1,3-benzothiazol-2(3H)-one] yielded a GI50 [2] of 6.4 µM and a GI50 [3] of 7.3 µM.
For `CC(F)(F)CN1C(=O)c2[nH]nc(-c3cccc4[nH]c(=O)oc34)c2C1c1ccc(Oc2ccc(Cl)cc2)cc1F` (single isomer, unassigned; (-)) [Example 58, (−)-7-{4-[4-(4-Chlorophenoxy)-2-fluorophenyl]-5-(2,2-difluoropropyl)-6-oxo-1,4,5,6-tetrahydropyrrolo[3,4-c]pyrazol-3-yl}-1,3-benzoxazol-2(3H)-one], the “TGI (%)” value ([1]; 200 mg/kg, BID × 11, test end date) was 87%.
`O=C1c2[nH]nc(-c3cccc4[nH]c(=O)oc34)c2C(c2ccc(F)cc2)N1CC(F)(F)F` (single isomer, unassigned) [Example 8, 7-[4-(4-Fluorophenyl)-6-oxo-5-(2,2,2-trifluoroethyl)-1,4,5,6-tetrahydropyrrolo[3,4-c]pyrazol-3-yl]-1,3-benzoxazol-2(3H)-one (enantiomer)] was tested, and the GI50 [2] was 1.1 µM and the GI50 [3] was over 25 µM.
In the case of `CC(F)(F)CN1C(=O)c2[nH]nc(-c3cccc4[nH]c(=O)oc34)c2C1c1ccc(Oc2ccc(Cl)cc2)cc1` (single isomer, unassigned; (-)) [Example 57, (−)-7-{4-[4-(4-Chlorophenoxy)phenyl]-5-(2,2-difluoropropyl)-6-oxo-1,4,5,6-tetrahydropyrrolo[3,4-c]pyrazol-3-yl}-1,3-benzoxazol-2(3H)-one], the “TGI (%)” value [1, 8] is reported as 89% and the “TGI (%)” value [1, 9] is reported as 97%.
With `CC(F)(F)CN1C(=O)c2[nH]nc(-c3cccc4[nH]c(=O)oc34)c2C1c1ccc(Oc2cc(Cl)cc(OC(F)(F)F)c2)cc1` (single isomer, unassigned; (-)) [Example 34, (−)-7-[4-{4-[3-Chloro-5-(trifluoromethoxy)phenoxy]phenyl}-5-(2,2-difluoropropyl)-6-oxo-1,4,5,6-tetrahydropyrrolo[3,4-c]pyrazol-3-yl]-1,3-benzoxazol-2(3H)-one] the “TGI (%)” value [1, 6] was 63%, the “TGI (%)” value [1, 7] was 87% and the “TGI (%)” value [1, 5] was 96%.
Compound `CC(F)(F)CN1C(=O)c2[nH]nc(-c3cccc4[nH]c(=O)oc34)c2C1c1ccnc(Oc2ccc(F)cc2)n1` (stereo not drawn) [Example 73, 7-{5-(2,2-Difluoropropyl)-4-[2-(4-fluorophenoxy)pyrimidine-4-yl]-6-oxo-1,4,5,6-tetrahydropyrrolo[3,4-c]pyrazol-3-yl}-1,3-benzoxazol-2(3H)-one] has a GI50 [2] of 0.89 µM and a GI50 [3] of 19 µM.
In the case of `CC(F)(F)CN1C(=O)c2[nH]nc(-c3cccc4[nH]c(=O)oc34)c2C1c1ccc(Oc2ccc(OC(F)(F)F)cc2)cc1` (single isomer, unassigned; (-)) [Example 30, (−)-7-[5-(2,2-difluoropropyl)-6-oxo-4-{4-[4-(trifluoromethoxy)phenoxy]phenyl}-1,4,5,6,-tetrahydropyrrolo[3,4-c]pyrazol-3-yl]-1,3-benzoxazol-2-(3H)-one], the “TGI (%)” value [1, 6] is reported as 26%, the “TGI (%)” value [1, 7] is reported as 50% and the “TGI (%)” value [1, 5] is reported as 83%.
`CC(F)(F)CN1C(=O)c2[nH]nc(-c3cccc4[nH]c(=O)oc34)c2C1c1cccc(Oc2ccc(F)cc2)c1` (single isomer, unassigned; (-)) [Example 53, (−)-7-{5-(2,2-Difluoropropyl)-4-[3-(4-fluorophenoxy)phenyl]-6-oxo-1,4,5,6-tetrahydropyrrolo[3,4-c]pyrazol-3-yl}-1,3-benzoxazol-2(3H)-one] was tested, and the “TGI (%)” value [1, 8] was 41% and the “TGI (%)” value [1, 9] was 83%.
